These results are taken from patent publication US7964531B2, “3-phenoxy-4-pyridazinol derivatives and herbicidal composition containing the same” (Mitsui Chemicals Agro, Inc., priority 2001, dated 2011).

The structures appear in SMILES notation.

Holding throughout (assay type): in vivo
Common to all, as to conditions: wettable powder applied 3 days after transplanting, judged after 25 days

Series [1] deals with transplanted paddy-field rice. Description: Test Example 1: crop injury against transplanted paddy-field rice. A digest of the protocol:
(§1)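 Greenhouse, flooded paddy soil; weeds from seed (top 1 cm), C. serotinus from germinated tubers, rice transplanted at 2.2-leaf stage. WP diluted in water, applied to pot day 3 post-transplant. Scored day 25 post-treatment, 0–5 inhibition scale.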

The test system of series [2] is Scirpus joncoides. Description: Test Example 1: herbicidal effects, paddy-field pot test. A digest of the protocol:
as §1

In series [3] the test system is annual broad-leaved weeds (Lindernia spp., Rotala indica). The description is as above. The gist of the method:
as §1

In series [4] the test system is Cyperus serotinus. The description is as above. A digest of the protocol: as §1
For series [5], the system named is barnyardgrass (Echinochloa oryzicola Vasing.). The series is described as above. The gist of the method:
as §1

On to `Cc1ccccc1Oc1nnc(Cl)cc1OC(=O)OCC(Cl)(Cl)Cl` [Example 349], for which the “Crop injury against transplanted rice” value in series [1] (chemical dosage 10 g/a) and in series [1] (chemical dosage 20 g/a) was 0 (Growth inhibition rate; 0 to 10%) each time. The “Herbicidal effects Scirpus joncoides” value in series [2] (chemical dosage 10 g/a) is 4 (Growth inhibition rate; 71 to 90%); in series [2] (chemical dosage 20 g/a) it was 5 (Growth inhibition rate; 91 to 100%). In addition, the “Herbicidal effects Broad leaf” value in series [3] (chemical dosage 10 g/a) is reported as 4 (Growth inhibition rate; 71 to 90%); in series [3] (chemical dosage 20 g/a) it was 5 (Growth inhibition rate; 91 to 100%). The “Herbicidal effects Cyperus serotinus” value in series [4] (chemical dosage 10 g/a) and in series [4] (chemical dosage 20 g/a) was 5 (Growth inhibition rate; 91 to 100%) each time. Besides, the “Herbicidal effects Barnyard grass” value is 3 (Growth inhibition rate; 51 to 70%) in series [5] (chemical dosage 10 g/a) and 4 (Growth inhibition rate; 71 to 90%) in series [5] (chemical dosage 20 g/a).
As to `COc1cccc(C)c1Oc1nnc(Cl)cc1O` [Example 267], the “Crop injury against transplanted rice” value in series [1] (chemical dosage 10 g/a) and in series [1] (chemical dosage 20 g/a) was 0 (Growth inhibition rate; 0 to 10%) throughout. Further, the “Herbicidal effects Scirpus joncoides” value in series [2] (chemical dosage 10 g/a) is on record as 4 (Growth inhibition rate; 71 to 90%); in series [2] (chemical dosage 20 g/a), 5 (Growth inhibition rate; 91 to 100%). For the same compound, the “Herbicidal effects Broad leaf” value in series [3] (chemical dosage 10 g/a) and in series [3] (chemical dosage 20 g/a) was 5 (Growth inhibition rate; 91 to 100%) in each case. Besides, the “Herbicidal effects Cyperus serotinus” value in series [4] (chemical dosage 10 g/a) and in series [4] (chemical dosage 20 g/a) was 5 (Growth inhibition rate; 91 to 100%) throughout. Further, the “Herbicidal effects Barnyard grass” value is 1 (Growth inhibition rate; 11 to 30%) in series [5] (chemical dosage 10 g/a) and 2 (Growth inhibition rate; 31 to 50%) in series [5] (chemical dosage 20 g/a).
For the compound `Oc1cc(Cl)nnc1Oc1cccc2c1OCC2` [Example 189], the “Crop injury against transplanted rice” value was 0 (Growth inhibition rate; 0 to 10%) in series [1] (chemical dosage 5 g/a) and 3 (Growth inhibition rate; 51 to 70%) in series [1] (chemical dosage 10 g/a). For the same compound, the “Herbicidal effects Scirpus joncoides” value in series [2] (chemical dosage 5 g/a) is given as 4 (Growth inhibition rate; 71 to 90%); in series [2] (chemical dosage 10 g/a), 5 (Growth inhibition rate; 91 to 100%). Further, the “Herbicidal effects Broad leaf” value in series [3] (chemical dosage 5 g/a) and in series [3] (chemical dosage 10 g/a) was 5 (Growth inhibition rate; 91 to 100%) in each case. Also, the “Herbicidal effects Cyperus serotinus” value in series [4] (chemical dosage 5 g/a) and in series [4] (chemical dosage 10 g/a) was 5 (Growth inhibition rate; 91 to 100%) throughout. In addition, the “Herbicidal effects Barnyard grass” value in series [5] (chemical dosage 5 g/a) was 2 (Growth inhibition rate; 31 to 50%); in series [5] (chemical dosage 10 g/a), 3 (Growth inhibition rate; 51 to 70%).
Regarding `Cc1ccc(Cl)c(Oc2nnc(Cl)cc2O)c1` [Example 203], the “Crop injury against transplanted rice” value in series [1] (chemical dosage 12.5 g/a) and in series [1] (chemical dosage 25 g/a) was 0 (Growth inhibition rate; 0 to 10%) each time. Besides, the “Herbicidal effects Scirpus joncoides” value in series [2] (chemical dosage 12.5 g/a) and in series [2] (chemical dosage 25 g/a) was 5 (Growth inhibition rate; 91 to 100%) in each case. Moreover, the “Herbicidal effects Broad leaf” value in series [3] (chemical dosage 12.5 g/a) and in series [3] (chemical dosage 25 g/a) was 5 (Growth inhibition rate; 91 to 100%) each time. The “Herbicidal effects Cyperus serotinus” value in series [4] (chemical dosage 12.5 g/a) and in series [4] (chemical dosage 25 g/a) was 5 (Growth inhibition rate; 91 to 100%) throughout. Further, the “Herbicidal effects Barnyard grass” value in series [5] (chemical dosage 12.5 g/a) was 1 (Growth inhibition rate; 11 to 30%); in series [5] (chemical dosage 25 g/a), 2 (Growth inhibition rate; 31 to 50%).
As to `COc1ccccc1Oc1nnc(Cl)cc1O` [Example 121], the “Crop injury against transplanted rice” value in series [1] (chemical dosage 12.5 g/a) and in series [1] (chemical dosage 25 g/a) was 0 (Growth inhibition rate; 0 to 10%) throughout. The “Herbicidal effects Scirpus joncoides” value in series [2] (chemical dosage 12.5 g/a) is on record as 3 (Growth inhibition rate; 51 to 70%); in series [2] (chemical dosage 25 g/a) it was 4 (Growth inhibition rate; 71 to 90%). The “Herbicidal effects Broad leaf” value in series [3] (chemical dosage 12.5 g/a) and in series [3] (chemical dosage 25 g/a) was 5 (Growth inhibition rate; 91 to 100%) each time. For the same compound, the “Herbicidal effects Cyperus serotinus” value in series [4] (chemical dosage 12.5 g/a) and in series [4] (chemical dosage 25 g/a) was 5 (Growth inhibition rate; 91 to 100%) each time. Further, the “Herbicidal effects Barnyard grass” value in series [5] (chemical dosage 12.5 g/a) is recorded as 2 (Growth inhibition rate; 31 to 50%); in series [5] (chemical dosage 25 g/a), 3 (Growth inhibition rate; 51 to 70%).
As for `Oc1cc(Cl)nnc1Oc1c(Cl)cccc1Cl` [Example 240], the “Crop injury against transplanted rice” value in series [1] (chemical dosage 12.5 g/a) and in series [1] (chemical dosage 25 g/a) was 0 (Growth inhibition rate; 0 to 10%) each time. The “Herbicidal effects Scirpus joncoides” value was 3 (Growth inhibition rate; 51 to 70%) in series [2] (chemical dosage 12.5 g/a) and 4 (Growth inhibition rate; 71 to 90%) in series [2] (chemical dosage 25 g/a). For the same compound, the “Herbicidal effects Broad leaf” value in series [3] (chemical dosage 12.5 g/a) and in series [3] (chemical dosage 25 g/a) was 5 (Growth inhibition rate; 91 to 100%) throughout. Besides, the “Herbicidal effects Cyperus serotinus” value in series [4] (chemical dosage 12.5 g/a) and in series [4] (chemical dosage 25 g/a) was 5 (Growth inhibition rate; 91 to 100%) in each case. Also, the “Herbicidal effects Barnyard grass” value in series [5] (chemical dosage 12.5 g/a) is recorded as 2 (Growth inhibition rate; 31 to 50%); in series [5] (chemical dosage 25 g/a), 3 (Growth inhibition rate; 51 to 70%).
Regarding `C=CCc1ccccc1Oc1nnc(Cl)cc1OC` [Comparative compound, 3-(2-allylphenoxy)-6-chloro-4-methoxypyridazine, reference compound], the “Crop injury against transplanted rice” value in series [1] (chemical dosage 25 g/a) is given as 0 (Growth inhibition rate; 0 to 10%). Also, in series [2] (chemical dosage 25 g/a), the “Herbicidal effects Scirpus joncoides” value is recorded as 0 (Growth inhibition rate; 0 to 10%). For the same compound, the “Herbicidal effects Broad leaf” value in series [3] (chemical dosage 25 g/a) is 1 (Growth inhibition rate; 11 to 30%). In addition, the “Herbicidal effects Cyperus serotinus” value in series [4] (chemical dosage 25 g/a) is recorded as 0 (Growth inhibition rate; 0 to 10%). Also, the “Herbicidal effects Barnyard grass” value in series [5] (chemical dosage 25 g/a) is 0 (Growth inhibition rate; 0 to 10%).
For `Cc1cc(C)cc(Oc2nnc(Cl)cc2O)c1` [Example 281], the “Crop injury against transplanted rice” value in series [1] (chemical dosage 12.5 g/a) and in series [1] (chemical dosage 25 g/a) was 0 (Growth inhibition rate; 0 to 10%) in each case. For the same compound, the “Herbicidal effects Scirpus joncoides” value in series [2] (chemical dosage 12.5 g/a) is listed as 2 (Growth inhibition rate; 31 to 50%); in series [2] (chemical dosage 25 g/a), 3 (Growth inhibition rate; 51 to 70%). Further, the “Herbicidal effects Broad leaf” value in series [3] (chemical dosage 12.5 g/a) and in series [3] (chemical dosage 25 g/a) was 5 (Growth inhibition rate; 91 to 100%) in each case. Further, the “Herbicidal effects Cyperus serotinus” value in series [4] (chemical dosage 12.5 g/a) and in series [4] (chemical dosage 25 g/a) was 5 (Growth inhibition rate; 91 to 100%) each time. Besides, the “Herbicidal effects Barnyard grass” value in series [5] (chemical dosage 12.5 g/a) and in series [5] (chemical dosage 25 g/a) was 0 (Growth inhibition rate; 0 to 10%) each time.
As for `Oc1cc(Cl)nnc1Oc1cccc2c1C1CC1C2` (stereo not shown) [Example 14], in series [1] (chemical dosage 10 g/a), the “Crop injury against transplanted rice” value is on record as 0 (Growth inhibition rate; 0 to 10%). For the same compound, the “Herbicidal effects Scirpus joncoides” value in series [2] (chemical dosage 10 g/a) was 4 (Growth inhibition rate; 71 to 90%). In series [3] (chemical dosage 10 g/a), the “Herbicidal effects Broad leaf” value is 5 (Growth inhibition rate; 91 to 100%). Besides, in series [4] (chemical dosage 10 g/a), the “Herbicidal effects Cyperus serotinus” value is 5 (Growth inhibition rate; 91 to 100%). Besides, the “Herbicidal effects Barnyard grass” value in series [5] (chemical dosage 10 g/a) is on record as 0 (Growth inhibition rate; 0 to 10%).
As to `Oc1cc(Cl)nnc1Oc1ccccc1Br` [Example 51], the “Crop injury against transplanted rice” value in series [1] (chemical dosage 12.5 g/a) and in series [1] (chemical dosage 25 g/a) was 0 (Growth inhibition rate; 0 to 10%) throughout. Moreover, the “Herbicidal effects Scirpus joncoides” value in series [2] (chemical dosage 12.5 g/a) is reported as 3 (Growth inhibition rate; 51 to 70%); in series [2] (chemical dosage 25 g/a), 5 (Growth inhibition rate; 91 to 100%). Also, the results for the “Herbicidal effects Broad leaf” value in series [3] (chemical dosage 12.5 g/a) and in series [3] (chemical dosage 25 g/a) were 4 (Growth inhibition rate; 71 to 90%) and 5 (Growth inhibition rate; 91 to 100%), respectively. For the same compound, the “Herbicidal effects Cyperus serotinus” value in series [4] (chemical dosage 12.5 g/a) and in series [4] (chemical dosage 25 g/a) was 5 (Growth inhibition rate; 91 to 100%) in each case. For the same compound, the “Herbicidal effects Barnyard grass” value in series [5] (chemical dosage 12.5 g/a) and in series [5] (chemical dosage 25 g/a) was 2 (Growth inhibition rate; 31 to 50%) each time.
Consider `Oc1cc(Cl)nnc1Oc1ccccc1C1CCC1` [Example 85], for which the “Crop injury against transplanted rice” value in series [1] (chemical dosage 10 g/a) is 0 (Growth inhibition rate; 0 to 10%). The “Herbicidal effects Scirpus joncoides” value in series [2] (chemical dosage 10 g/a) is on record as 3 (Growth inhibition rate; 51 to 70%). Moreover, the “Herbicidal effects Broad leaf” value in series [3] (chemical dosage 10 g/a) was 4 (Growth inhibition rate; 71 to 90%). Moreover, the “Herbicidal effects Cyperus serotinus” value in series [4] (chemical dosage 10 g/a) is 5 (Growth inhibition rate; 91 to 100%). Further, the “Herbicidal effects Barnyard grass” value in series [5] (chemical dosage 10 g/a) is recorded as 2 (Growth inhibition rate; 31 to 50%).
Turning to `Oc1cc(Cl)nnc1Oc1cccc2sccc12` [Example 185], in series [1] (chemical dosage 5 g/a), the “Crop injury against transplanted rice” value is on record as 0 (Growth inhibition rate; 0 to 10%). For the same compound, the “Herbicidal effects Scirpus joncoides” value in series [2] (chemical dosage 5 g/a) is listed as 2 (Growth inhibition rate; 31 to 50%). Besides, the “Herbicidal effects Broad leaf” value in series [3] (chemical dosage 5 g/a) is listed as 3 (Growth inhibition rate; 51 to 70%). The “Herbicidal effects Cyperus serotinus” value in series [4] (chemical dosage 5 g/a) is on record as 3 (Growth inhibition rate; 51 to 70%). For the same compound, the “Herbicidal effects Barnyard grass” value in series [5] (chemical dosage 5 g/a) is 1 (Growth inhibition rate; 11 to 30%).
